This is an account of results in EP4768480A1, “ALKOXY THIOPHENE ACYL ARYLAMINE COMPOUNDS AND USE THEREOF” (priority 2024, dated 2025).

For one test, the target named is T1, SMS2 (Homo sapiens, UniProt Q8NHU3).
T1 construct: CAO, Yu research team, National Protein Scientific Center (Shanghai); supplied by an outside laboratory, not a commercial vendor
T1 sequence (Q8NHU3 1-365): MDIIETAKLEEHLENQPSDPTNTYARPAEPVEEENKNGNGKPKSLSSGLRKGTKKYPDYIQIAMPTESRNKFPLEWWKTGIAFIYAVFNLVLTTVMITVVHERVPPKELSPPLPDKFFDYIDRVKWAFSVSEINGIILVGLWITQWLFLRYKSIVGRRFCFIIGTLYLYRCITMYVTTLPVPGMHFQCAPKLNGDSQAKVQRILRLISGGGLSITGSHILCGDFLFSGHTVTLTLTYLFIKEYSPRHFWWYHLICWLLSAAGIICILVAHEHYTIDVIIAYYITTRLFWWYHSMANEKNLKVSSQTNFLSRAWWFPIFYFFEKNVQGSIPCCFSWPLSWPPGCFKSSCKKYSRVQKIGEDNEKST
Briefly: SMS2 inhibitory activity in vitro, HPLC fluorescence quantitative detection (C6-NBD-ceramide to C6-NBD-SM). In kind it is biochemical. The conditions noted are these: 1 µM test compound; SMS2 pure enzyme; 37°C, 30 minutes; average of two measurements; read-out: Inhibition rate on SMS2 at C/µM 1. The text has this: • 1. Electro-thermostatic water bath, from Shanghai Yiheng Technology Co., Ltd.); • 2. Vortex Mixer, with model ID of XW-80A, from Shanghai Jingke Industrial Co., Ltd.; • 3. […] High Performance Liquid Chromatography Agilent 1100, equipped with a quaternary pump, vacuum degassing, and FLD fluorescence detector, from Agilent Technologies, Palo Alto, CA, USA; • 5. HPLC column COSMOSIL 5C18-MS-II (4.6mm I.D. X 250mm); • 6. […] The organic solvents used in the present disclosure were purchased from Shanghai National Reagent Company, wherein methanol was pure chromatography; water was ultra-pure water which is filtrated by Milli-Q pump, deionized and ultra-filtrated with 0.22 µm membrane; and other biological consumables were purchased from domestic companies; • 8. Preparation of test compound solutions: each test compound was accurately weighed and dissolved in an appropriate volume of DMSO to prepare a 10 mmol/L stock solution. The stock solution was then diluted with an appropriate volume of DMSO to achieve the desired working concentration; • 9. SMS2 pure enzyme, DDM solution and buffer solution were provided by CAO, Yu research team from National Protein Scientific Center (Shanghai).
79 µl of the diluted enzyme solution were transferred into a 1.5 mL EP tube, 1 µl of inhibitor DMSO solution were added thereto, vortexing for 15 seconds, followed by standing at room temperature for 5 minutes. 20 µl of a mixed solution of DMPC and C6-NBD-ceramide were added, vortexing for 15 seconds, and incubated at 37°C for 30 minutes. 200 µl of anhydrous ethanol were added to quench the reaction, vortexing for 15 seconds. 200 µl of the reaction solution were taken out and stored at 4°C and avoided light for HPLC detection.
The peak area values of A(sm) and A(ceramide) in the HPLC chromatogram corresponding to C6-NBD-SM and C6-NBD-Ceramide in the DMSO group and inhibitor group samples were analyzed and recorded, and the inhibition rate of the test compound was calculated according to the following formula. Inhibition rate = (Peak area values of DMSO group−Peak area values of Inhibitor group)/(Peak area values of DMSO group) × 100% [formula]
As to `Cc1ccccc1COc1ccsc1C(=O)Nc1cccnc1` [1-41, 3-(2-methylbenzyloxy)-N-(pyridin-3-yl)thiophene-2-carboxamide], the inhibition at 1 µM stood at 72%.
Turning to `O=C(Nc1cccnc1)c1sccc1OCc1cccc(C(F)(F)F)c1` [1-97, 3-(3-trifluoromethylbenzyloxy)-N-(pyridin-3-yl)thiophene-2-carboxamide], the inhibition at 1 µM stood at 80%.
Same read-out and setting: the same measure for `O=C(Nc1cncc(F)c1)c1sccc1OCc1ccccc1` [1-92, 3-benzyloxy-N-(5-fluoropyridin-3-yl)thiophene-2-carboxamide]: 50%; for `CCCOc1cccc(Cl)c1COc1ccsc1C(=O)Nc1cccnc1` [1-39, 3-(2-chloro-6-propoxybenzyloxy)-N-(pyridin-3-yl)thiophene-2-carboxamide]: 74%.
The same measure, in the same setting: as for `Cc1cc(OCc2ccccc2)c(C(=O)Nc2cccnc2)s1` [1-40, 3-benzyloxy-5-methyl-N-(pyridin-3-yl)thiophene-2-carboxamide], the figure is 23%; as for `Cc1ccc(F)cc1COc1ccsc1C(=O)Nc1cccnc1` [1-88, 3-(5-fluoro-2-methylbenzyloxy)-N-(pyridin-3-yl)thiophene-2-carboxamide], 76%; as for `O=C(Nc1cccnc1)c1sccc1OCc1ccccc1Br` [1-86, 3-(2-bromobenzyloxy)-N-(pyridin-3-yl)thiophene-2-carboxamide], 86%.
Same read-out and setting: the same measure for `COc1cccc(Cl)c1COc1ccsc1C(=O)Nc1cccnc1` [1-63, 3-(2-chloro-6-methoxybenzyloxy)-N-(pyridin-3-yl)thiophene-2-carboxamide]: 80%.

Staying with this test, now noted: 10 µM test compound; SMS2 pure enzyme; 37°C, 30 minutes; average of two measurements; read-out: Inhibition rate on SMS2 at C/µM 10.
For `CCCCCCOc1cccc(COc2ccsc2C(=O)Nc2cccnc2)c1` [1-79, 3-(3-(hexyloxy)benzyloxy)-N-(pyridin-3-yl)thiophene-2-carboxamide], the inhibition at 10 µM is 60%.
Still for that read-out and setting: as for `O=C(Nc1cccnc1)c1scc(Br)c1OCc1ccccc1` [1-15, 3-benzyloxy-4-bromo-N-(pyridin-3-yl)thiophene-2-carboxamide], the figure is 53%; as for `O=C(Nc1ccccn1)c1sccc1OCc1ccccc1` [1-61, 3-benzyloxy-N-(pyridin-2-yl)thiophene-2-carboxamide], 50%.
Take `O=C(Nc1cccnc1)c1sccc1OCC12CC3CC(CC(C3)C1)C2` [1-99, 3-(adamantan-1-ylmethoxy)-N-(pyridin-3-yl)thiophene-2-carboxamide]: the inhibition at 10 µM turned out to be 62%.
Turning to `O=C(Nc1cnccc1Cl)c1sccc1OCc1ccccc1` [1-91, 3-benzyloxy-N-(4-chloropyridin-3-yl)thiophene-2-carboxamide], the inhibition at 10 µM worked out at 56%.
The same measure, in the same setting: the same measure for `O=C(Nc1cccnc1)c1ncccc1OCc1ccccc1` [12-15, 3-benzyloxy-N-(pyridin-3-yl)pyridin-2-carboxamide]: 16%.
In the case of `CC(C)(O)COc1ccc(F)cc1COc1ccsc1C(=O)Nc1cccnc1` [1-8, 3-(5-fluoro-2-(2-hydroxy-2-methylpropoxy)benzyloxy)-N-(pyridin-3-yl)thiophene-2-carboxamide], the inhibition at 10 µM stood at 56%.
Same read-out and setting: the same measure for `CC(C)(C)C(=O)Oc1ccc(Cl)c(COc2ccsc2C(=O)Nc2cccnc2)c1` [1-23]: 53%.
Same read-out and setting: the same measure for `Cc1ccc(COc2ccsc2C(=O)Nc2cccnc2)cc1` [1-42, 3-(4-methylbenzyloxy)-N-(pyridin-3-yl)thiophene-2-carboxamide]: 50%; for `O=C(Nc1cccnc1)c1sc([N+](=O)[O-])cc1OCc1ccccc1` [1-14, 3-benzyloxy-5-nitro-N-(pyridin-3-yl)thiophene-2-carboxamide]: 50%.
Same read-out and setting: the same measure for `O=C(Nc1cccnn1)c1sccc1OCc1ccccc1` [1-4, 3-benzyloxy-N-(pyridazin-3-yl)thiophene-2-carboxamide]: 63%; for `O=C(Nc1cccnc1)c1cccnc1OCc1ccccc1` [12-18, 2-benzyloxy-N-(pyridin-3-yl)pyridin-3-carboxamide]: 22%.
